Laboratory results taken from patent publication US12466813B2, “PRC1 inhibitors and methods of treatment therewith” (The Regents of the University of Michigan, priority 2018, dated 2025).

Target: T1, RING1B-BMI1 (Homo sapiens, UniProt Q99496)
T1 sequence (Q99496 1-336): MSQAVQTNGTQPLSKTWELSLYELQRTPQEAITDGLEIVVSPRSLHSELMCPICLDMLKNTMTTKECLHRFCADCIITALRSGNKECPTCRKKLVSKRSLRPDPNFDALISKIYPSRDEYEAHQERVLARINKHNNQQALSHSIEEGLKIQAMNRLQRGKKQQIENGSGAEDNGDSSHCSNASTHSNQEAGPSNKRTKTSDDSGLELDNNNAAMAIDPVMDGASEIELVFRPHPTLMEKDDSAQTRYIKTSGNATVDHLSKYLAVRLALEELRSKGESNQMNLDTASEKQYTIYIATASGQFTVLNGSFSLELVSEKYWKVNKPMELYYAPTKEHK
T1 sequence (P35226 1-326 partner): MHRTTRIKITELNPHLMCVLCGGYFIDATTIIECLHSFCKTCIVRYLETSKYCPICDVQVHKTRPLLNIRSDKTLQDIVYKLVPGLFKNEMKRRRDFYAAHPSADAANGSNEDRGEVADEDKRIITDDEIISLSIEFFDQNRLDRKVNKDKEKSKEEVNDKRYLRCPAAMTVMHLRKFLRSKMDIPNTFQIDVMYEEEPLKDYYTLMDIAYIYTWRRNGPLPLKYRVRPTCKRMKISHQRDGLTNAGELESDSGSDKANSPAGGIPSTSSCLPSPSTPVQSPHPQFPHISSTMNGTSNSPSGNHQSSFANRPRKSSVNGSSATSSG
Experiment: KD classes of Table A (direct binding to Ring1B-Bmi1)
Conditions: class given in Table A
Method: Experiments were conducted during development of embodiments herein to develop small molecule inhibitors of PRC1 by targeting the Ring1B-BMI1 E3 ligase. These compounds bind directly to Ring1B-Bmi1 with low-micromolar affinity and inhibit PRC1 in vitro and in cells. […] Experiments were conducted during development of embodiments herein to test COMPOUND 1 in leukemia stem cell models represented by TEX cells (Ref. 22; herein incorporated by reference in its entirety) and M9-ENL1 cells (Ref. 23; herein incorporated by reference in its entirety). […] In some embodiments, COMPOUND 1 and COMPOUND 1 analogs are find use as agents in targeting leukemia and other cancer stem cells.
The compounds listed in Table A have been synthesized and/or tested for activity in inhibiting activity of PRC1 complex, and are within the scope herein.

Structure (SMILES) | Kd [µM]
CCc1c(-c2cccc3[nH]ccc23)[nH]c(C(=O)O)c1-c1ccccc1 [compound 89] | 20 to 50
CCc1c(-c2cccc3[nH]ccc23)[nH]c(C(=O)O)c1CCc1ccccc1 [compound 90] | 50 to 100
CCc1c(-c2cccc3[nH]ncc23)[nH]c(C(=O)O)c1-c1ccc(OC)cc1Cl [compound 91] | 50 to 100
CCc1c(-c2cccc3[nH]ccc23)[nH]c(C(=O)O)c1-c1ccc(O)cc1Cl [compound 92] | 50 to 100
Cc1c(-c2cccc3[nH]ccc23)[nH]c(C(=O)O)c1-c1ccccc1Cl [compound 93] | 50 to 100
CCc1c(-c2cccc3[nH]ccc23)[nH]c(C(=O)O)c1-c1cnccc1Cl [compound 94] | 50 to 100
CCCc1c(-c2cccc3[nH]ccc23)[nH]c(C(=O)O)c1-c1ccccc1Cl [compound 95] | 50 to 100
CCc1c(-c2cccc3[nH]ccc23)[nH]c(C(=O)O)c1-c1ccccc1-c1ccccc1 [compound 96] | 50 to 100
CCc1c(-c2cccc3[nH]ccc23)[nH]c(C(=O)O)c1-c1cccc(Oc2ccccc2)c1 [compound 97] | 50 to 100
CCc1c(-c2cccc3[nH]ccc23)[nH]c(C(=O)O)c1-c1cccc(C)c1 [compound 99] | 50 to 100
CCc1c(-c2cccc3[nH]ccc23)[nH]c(C(=O)O)c1-c1ccc(C)cc1 [compound 100] | 50 to 100
CCc1c(-c2cccc3c2ccn3C)[nH]c(C(=O)O)c1-c1ccccc1 [compound 101] | 50 to 100
CCc1c(-c2cccc3[nH]ccc23)[nH]c(C(=O)O)c1C1CCCCC1 [compound 102] | > 100
CCc1c(-c2c(OC)cccc2OC)[nH]c(C(=O)O)c1-c1ccc(OC)cc1Cl [compound 104] | > 100
CCc1c(-c2cccc3[nH]ccc23)[nH]c(C(=O)O)c1-c1ccc(N)cc1 [compound 105] | > 100
CCc1c(-c2cccc3[nH]ccc23)[nH]c(C(=O)O)c1-c1ccc(-c2ccccc2)cc1 [compound 106] | > 100
CCc1c(-c2ccccc2O)[nH]c(C(=O)O)c1-c1ccccc1Cl [compound 107] | > 100
CCc1c(-c2cccc3c2ccn3C)[nH]c(C(=O)O)c1-c1ccc(OC)cc1 [compound 108] | > 100

Structure (SMILES) | Kd [µM]
CCc1c(-c2cccc3c2ccn3C)[nH]c(C(=O)O)c1-c1ccc(F)c(C)c1 [compound 109] | > 100
Cn1ccc2c(-c3[nH]c(C(=O)O)c4c3CCCC4)cccc21 [compound 110] | > 100
CCc1c(C(=O)O)[nH]c(-c2cccc3c2ccn3C)c1CC [compound 111] | > 100
CCc1c(C(=O)O)[nH]c(-c2cccc3[nH]ccc23)c1CC [compound 112] | > 100
CCc1c(C(=O)O)[nH]c(-c2cccc3[nH]ccc23)c1-c1ccccc1 [compound 113] | > 100
CCc1c(-c2cccc3[nH]ccc23)[nH]c(C(=O)O)c1-c1ccc([N+](=O)[O-])cc1 [compound 114] | > 100
O=C(O)c1[nH]c(-c2cccc3[nH]ccc23)c2c1CCCC2 [compound 115] | > 100
Cc1cc(C(=O)O)[nH]c1-c1cccc2c1ccn2C [compound 116] | > 100
Cc1cc(-c2cccc3c2ccn3C)[nH]c1C(=O)O [compound 117] | > 100
O=C(O)c1cc(-c2ccccc2)c(-c2cccc3[nH]ccc23)[nH]1 [compound 118] | > 100
O=C(O)c1ccc(-c2cccc3c2ccn3C2CC2)[nH]1 [compound 119] | > 100
Cc1cc(-c2cccc3[nH]ccc23)[nH]c1C(=O)O [compound 120] | > 100
Cc1cc(C(=O)O)[nH]c1-c1cccc2[nH]ccc12 [compound 121] | > 100
CCn1ccc2c(-c3ccc(C(=O)O)[nH]3)cccc21 [compound 122] | > 100
Cn1c(C(=O)O)ccc1-c1cccc2[nH]ccc12 [compound 123] | > 100
CC(C)CCn1ccc2c(-c3ccc(C(=O)O)[nH]3)cccc21 [compound 124] | > 100
Nc1cccc(-c2ccc(C(=O)O)[nH]2)c1 [compound 125] | > 100
O=C(O)c1ccc(-c2cccc3[nH]ncc23)[nH]1 [compound 126] | > 100
